pIC50: −log10 of the molar value. Read-outs that look alike come from different tables or passages of the source.
Biological target: PRC2 complex (EZH2 Y641F/EED/SUZ12/RbAp48/AEBP2) (Homo sapiens (Human), UniProt Q15910, Y641F)
Assay: Activity of a compound to PRC2 complex (EZH2 Y641F), HTRF
[1] = read-out: IC50 (EZH2_Y641F), EZH2 Y641F PRC2 complex, HTRF, class symbols

Chain of PRC2 complex (EZH2 Y641F/EED/SUZ12/RbAp48/AEBP2) (Q15910 whole entry Y641F): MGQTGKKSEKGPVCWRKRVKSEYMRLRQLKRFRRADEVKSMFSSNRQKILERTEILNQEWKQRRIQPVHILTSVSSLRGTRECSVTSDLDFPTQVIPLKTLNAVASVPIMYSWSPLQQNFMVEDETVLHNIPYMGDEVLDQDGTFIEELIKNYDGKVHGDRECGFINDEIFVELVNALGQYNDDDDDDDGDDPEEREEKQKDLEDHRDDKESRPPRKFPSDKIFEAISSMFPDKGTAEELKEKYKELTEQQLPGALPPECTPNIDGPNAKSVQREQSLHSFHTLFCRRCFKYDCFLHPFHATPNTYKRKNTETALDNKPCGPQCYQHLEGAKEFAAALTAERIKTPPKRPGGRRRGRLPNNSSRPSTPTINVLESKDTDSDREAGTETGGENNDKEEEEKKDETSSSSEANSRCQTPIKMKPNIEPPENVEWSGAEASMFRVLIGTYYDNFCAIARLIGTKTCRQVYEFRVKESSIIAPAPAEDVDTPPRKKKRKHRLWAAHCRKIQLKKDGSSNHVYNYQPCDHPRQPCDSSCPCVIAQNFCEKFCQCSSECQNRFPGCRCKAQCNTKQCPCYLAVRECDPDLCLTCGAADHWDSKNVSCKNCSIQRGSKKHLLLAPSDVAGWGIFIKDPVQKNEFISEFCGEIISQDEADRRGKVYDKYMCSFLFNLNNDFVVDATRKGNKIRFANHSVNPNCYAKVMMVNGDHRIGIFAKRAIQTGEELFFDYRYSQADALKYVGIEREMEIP
Chain of PRC2 complex (EZH2 Y641F/EED/SUZ12/RbAp48/AEBP2) (O75530 whole entry partner): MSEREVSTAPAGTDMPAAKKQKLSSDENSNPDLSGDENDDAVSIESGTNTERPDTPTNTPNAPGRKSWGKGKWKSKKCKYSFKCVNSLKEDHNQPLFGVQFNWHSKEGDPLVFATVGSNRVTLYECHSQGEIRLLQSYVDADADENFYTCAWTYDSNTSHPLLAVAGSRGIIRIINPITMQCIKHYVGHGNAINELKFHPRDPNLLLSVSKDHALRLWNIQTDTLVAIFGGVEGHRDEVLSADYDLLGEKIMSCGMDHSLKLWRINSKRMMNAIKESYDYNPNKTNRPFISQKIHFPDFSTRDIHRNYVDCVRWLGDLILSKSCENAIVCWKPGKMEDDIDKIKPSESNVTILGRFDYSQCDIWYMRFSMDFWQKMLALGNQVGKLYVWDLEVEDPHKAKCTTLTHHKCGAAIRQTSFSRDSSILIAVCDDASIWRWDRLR
Chain of PRC2 complex (EZH2 Y641F/EED/SUZ12/RbAp48/AEBP2) (Q15022 whole entry partner): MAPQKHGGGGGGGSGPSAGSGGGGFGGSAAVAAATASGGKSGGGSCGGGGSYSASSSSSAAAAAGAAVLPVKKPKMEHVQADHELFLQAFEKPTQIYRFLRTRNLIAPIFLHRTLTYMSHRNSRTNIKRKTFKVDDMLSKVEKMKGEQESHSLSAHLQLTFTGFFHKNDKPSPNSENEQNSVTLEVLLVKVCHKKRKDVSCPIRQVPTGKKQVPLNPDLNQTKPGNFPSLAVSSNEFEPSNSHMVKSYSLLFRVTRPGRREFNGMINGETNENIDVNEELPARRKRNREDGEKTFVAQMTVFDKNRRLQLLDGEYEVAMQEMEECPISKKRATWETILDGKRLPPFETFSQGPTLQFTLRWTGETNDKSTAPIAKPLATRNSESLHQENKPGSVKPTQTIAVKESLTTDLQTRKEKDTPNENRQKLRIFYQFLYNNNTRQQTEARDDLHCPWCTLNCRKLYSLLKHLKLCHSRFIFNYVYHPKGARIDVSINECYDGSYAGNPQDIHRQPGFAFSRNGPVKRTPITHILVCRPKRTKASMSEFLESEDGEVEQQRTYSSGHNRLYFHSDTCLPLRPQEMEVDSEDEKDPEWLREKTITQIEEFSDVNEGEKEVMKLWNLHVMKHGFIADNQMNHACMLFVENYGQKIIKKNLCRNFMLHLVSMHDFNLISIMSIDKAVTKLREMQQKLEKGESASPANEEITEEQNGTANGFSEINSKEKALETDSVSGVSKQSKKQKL
Chain of PRC2 complex (EZH2 Y641F/EED/SUZ12/RbAp48/AEBP2) (Q09028 whole entry partner): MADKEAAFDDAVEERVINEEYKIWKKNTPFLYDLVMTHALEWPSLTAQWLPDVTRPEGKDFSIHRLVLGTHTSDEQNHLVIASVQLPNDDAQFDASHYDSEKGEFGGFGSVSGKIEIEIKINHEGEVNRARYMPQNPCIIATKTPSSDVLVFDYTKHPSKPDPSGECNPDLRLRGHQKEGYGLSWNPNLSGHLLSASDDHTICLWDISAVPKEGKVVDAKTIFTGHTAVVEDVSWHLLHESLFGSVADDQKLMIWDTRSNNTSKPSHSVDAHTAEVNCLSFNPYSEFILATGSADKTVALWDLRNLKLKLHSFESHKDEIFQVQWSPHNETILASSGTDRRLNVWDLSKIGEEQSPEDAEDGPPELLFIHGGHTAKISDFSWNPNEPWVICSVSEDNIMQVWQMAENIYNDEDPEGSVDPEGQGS
Chain of PRC2 complex (EZH2 Y641F/EED/SUZ12/RbAp48/AEBP2) (Q6ZN18 whole entry partner): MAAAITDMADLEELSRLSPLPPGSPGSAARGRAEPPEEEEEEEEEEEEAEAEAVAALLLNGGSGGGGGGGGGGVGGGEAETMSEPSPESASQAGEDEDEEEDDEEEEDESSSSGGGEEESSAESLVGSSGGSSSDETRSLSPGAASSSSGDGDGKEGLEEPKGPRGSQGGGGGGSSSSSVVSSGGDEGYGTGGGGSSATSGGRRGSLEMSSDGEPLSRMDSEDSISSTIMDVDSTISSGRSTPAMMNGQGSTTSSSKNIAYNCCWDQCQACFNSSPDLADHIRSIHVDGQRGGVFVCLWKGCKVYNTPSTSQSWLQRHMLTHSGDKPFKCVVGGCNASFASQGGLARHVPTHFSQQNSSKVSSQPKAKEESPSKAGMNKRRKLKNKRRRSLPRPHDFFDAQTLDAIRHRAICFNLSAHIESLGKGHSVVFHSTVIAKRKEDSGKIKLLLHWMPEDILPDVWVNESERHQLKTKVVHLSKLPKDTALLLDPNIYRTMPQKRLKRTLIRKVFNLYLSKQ
Experimental: Determination of the Activity of a Compound to PRC2 Complex (EZH2Y641F):
Detection Method: Homogeneous Time-Resolved Fluorescence (HTRF)
Reaction was conducted in darkness at room temperature for 4 h. […] The IC50 values of the compounds were calculated using SoftMax Pro 5.4.1 software.

Row | SMILES | pIC50 [1] | other results
1 | Cc1cc(C)c(CNC(=O)c2cc3cccn3c(C(O)c3ccc(Br)cc3)c2C)c(=O)[nH]1 (stereo not drawn) [Example 23, 5-((4-bromophenyl)(hydroxy)methyl)-N-((4,6-dimethyl-2-oxo-1,2-dihydropyridin-3-yl)methyl)-6-methylindolizine-7-carboxamide] | 6.00 to 7.00 | –
2 | COc1cc(C)[nH]c(=O)c1CNC(=O)c1cc2c(-c3cccnc3N(C)C)ccn2c(C(C)N2CCN(CC(F)(F)F)CC2)c1C (stereo not drawn) [Compound 179, 1-(2-(dimethylamino)pyridin-3-yl)-N-((4-methoxy-6-methyl-2-oxo-1,2-dihydropyridin-3-yl)methyl)-6-methyl-5-(1-(4-(2,2,2-trifluoroethyl)piperazin-1-yl)ethyl)indolizine-7-carboxamide] | > 7.00 | –
3 | Cc1cc(C)c(CNC(=O)c2cc3cccn3c(C(C)OCc3ccnn3C)c2C)c(=O)[nH]1 (stereo not drawn) [Example 21] | > 7.00 | –
4 | Cc1cc(C)c(CNC(=O)c2cc3cc(-c4cn(C)cn4)cn3c(C(C)N3CCOCC3)c2C)c(=O)[nH]1 (stereo not drawn) [Example 52, N-((4,6-dimethyl-2-oxo-1,2-dihydropyridin-3-yl)methyl)-6-methyl-2-(1-methyl-1H-imidazole-4-yl)-5-(1-morpholineylethyl)indolizine-7-carboxamide] | – | pIC50: 6.00 to 7.00
5 | COc1cccc(-c2ccn3c(C(C)N4CCOCC4)c(C)c(C(=O)NCc4c(C)cc(C)[nH]c4=O)cc23)c1 (stereo not drawn) [Example 120, N-((4,6-dimethyl-2-oxo-1,2-dihydropyridin-3-yl)methyl)-6-methyl-5-(1-morpholinylethyl)-1-(3-methoxyphenyl)indolizine-7-amide] | > 7.00 | –
6 | COc1cc(C)[nH]c(=O)c1CNC(=O)c1cc2c(-c3cn[nH]c3)ccn2c(C(C)N2CCOCC2)c1C (stereo not drawn) [Compound 152, N-((4-Methoxy-6-methyl-2-oxo-1,2-dihydropyridin-3-yl)methyl)-6-methyl-5-(1-morpholinylethyl)-1-(1H-pyrazol-4-yl)indolizine-7-carboxamide] | – | pIC50 (read-out: IC50 (EZH2_Y641F), EZH2 Y641F PRC2 complex, HTRF, numeric values): 8.58
7 | COc1cc(C)[nH]c(=O)c1CNC(=O)c1cc2c(-c3cc(C)nc(C)c3)ccn2c([C@H](C)N2CCN(CC(F)(F)F)CC2)c1C (single isomer, unassigned) [Compound 174, (S)-1-(2,6-dimethylpyridin-4-yl)-N-((4-methoxy-6-methyl-2-oxo-1,2-dihydropyridine-3-yl)methyl)-6-methyl-5-(1-(4-(2,2,2-trifluoroethyl)piperazin-1-yl)ethyl)indolizine-7-carboxamide or (R) 1-(2,6-dimethylpyridin-4-yl)-N-((4-methoxy-6-methyl-2-oxo-1,2-dihydropyridine-3-yl)methyl)-6-methyl-5-(1-(4-(2,2,2-trifluoroethyl)piperazin-1-yl)ethyl)indolizine-7-carboxamide] | > 7.00 | –
8 | Cc1cc(C)c(CNC(=O)c2cc3c(-c4cnn(C5CCOCC5)c4)ccn3c(C(C)N3CCN(CC(F)(F)F)CC3)c2C)c(=O)[nH]1 (stereo not drawn) [Compound 190, N-((4,6-dimethyl-2-oxo-1,2-dihydropyridin-3-yl)methyl)-6-methyl-1-(1-(tetrahydro-2H-pyran-4-yl)-1H-pyrazol-4-yl)-5-(1-(4-(2,2,2-trifluoroethyl)piperazin-1-yl)ethyl)indolizine-7-carb oxamide] | > 7.00 | –
9 | CCN(c1c(C)c(C(=O)NCc2c(C)cc(C)[nH]c2=O)cc2cc(Br)cn12)C1CCOCC1 [Example 57] | 6.00 to 7.00 | –
10 | Cc1cc(C)c(CNC(=O)c2cc3cccn3c(C(C)OCc3cccs3)c2C)c(=O)[nH]1 (stereo not drawn) [Example 17, N-((4,6-dimethyl-2-oxo-1,2-dihydropyridin-3-yl)methyl)-6-methyl-5-(1-(thiophene-2-ylmethoxy)ethyl)indolizine-7-carboxamide] | > 7.00 | –
11 | COc1cc(C)[nH]c(=O)c1CNC(=O)c1cc2c(-c3cc(C)nc(C)c3)ccn2c([C@H](C)N2CCN(CC(F)(F)F)CC2)c1C (single isomer, unassigned) [Compound 175, (S)-1-(2,6-dimethylpyridin-4-yl)-N-((4-methoxy-6-methyl-2-oxo-1,2-dihydropyridine-3-yl)methyl)-6-methyl-5-(1-(4-(2,2,2-trifluoroethyl)piperazin-1-yl)ethyl)indolizine-7-carboxamide or (R) 1-(2,6-dimethylpyridin-4-yl)-N-((4-methoxy-6-methyl-2-oxo-1,2-dihydropyridine-3-yl)methyl)-6-methyl-5-(1-(4-(2,2,2-trifluoroethyl)piperazin-1-yl)ethyl)indolizine-7-carboxamide] | 6.00 to 7.00 | –
12 | COc1cc(C)[nH]c(=O)c1CNC(=O)c1cc2c(-c3ccnc(C(C)C)c3)ccn2c(C(C)N2CCN(CC(F)(F)F)CC2)c1C (stereo not drawn) [Compound 206, 1-(2-isopropylpyridin-4-yl)-N-((4-methoxy-6-methyl-2-oxo-1,2-dihydropyridin-3-yl)methyl)-6-methyl-5-(1-(4-(2,2,2-trifluoroethyl)piperazin-1-yl)ethyl)indolizine-7-carboxamide] | > 7.00 | –
13 | Cc1cc(C)c(CNC(=O)c2cc3c(-c4ccccc4)ccn3c(C(C)N3CCOCC3)c2C)c(=O)[nH]1 (stereo not drawn) [Example 82, N-((4,6-dimethyl-2-oxo-1,2-dihydropyridin-3-yl)methyl)-6-methyl-5-(1-morphinolinylethyl)-1-phenylindolizine-7-carboxamide] | > 7.00 | –
14 | COc1ccc(-c2cc3cc(C(=O)NCc4c(C)cc(C)[nH]c4=O)c(C)c(C(C)N4CCOCC4)n3c2)c(F)c1 (stereo not drawn) [Example 43, N-((4,6-dimethyl-2-oxo-1,2-dihydropyridin-3-yl)methyl)-2-(2-fluoro-4-methoxyphenyl)-6-methyl-5-(1-morphinolinylethyl)indolizine-7-carboxamide] | > 7.00 | –
15 | Cc1cc(C)c(CNC(=O)c2cc3c(-c4cccc(N5CCOCC5)c4)ccn3c(C(C)N3CCOCC3)c2C)c(=O)[nH]1 (stereo not drawn) [Example 116, N-((4,6-dimethyl-2-oxo-1,2-dihydropyridin-3-yl)methyl)-1-(3-(dimethylamine)phenyl)-6-methyl-5-(1-morpholinylethyl)indolizine-7-carboxamide] | > 7.00 | –
16 | Cc1cc(C)c(CNC(=O)c2cc3cccn3c(C(C)OC3CCCCC3)c2C)c(=O)[nH]1 (stereo not drawn) [Example 8, 5-(1-(cyclohexyloxy)ethyl)-N-((4,6-dimethyl-2-oxo-1,2-dihydropyridin-3-yl)methyl)-6-methylindolizine-7-carboxamide] | 6.00 to 7.00 | –
17 | CCc1cc(-c2ccn3c(C(C)N4CCN(CC(F)(F)F)CC4)c(C)c(C(=O)NCc4c(OC)cc(C)[nH]c4=O)cc23)ccn1 (stereo not drawn) [Compound 205, 1-(2-ethylpyridin-4-yl)-N-((4-methoxy-6-methyl-2-oxo-1,2-dihydropyridin-3-yl)methyl)-6-methyl-5-(1-(4-(2,2,2-trifluoroethyl)piperazin-1-yl)ethyl)indolizine-7-carboxamide] | – | pIC50: > 7.00
18 | C=C(C)COC(C)c1c(C)c(C(=O)NCc2c(C)cc(C)[nH]c2=O)cc2cccn12 (stereo not drawn) [Example 5, N-((4,6-Dimethyl-2-oxo-1,2-dihydropyridin-3-yl)methyl)-6-methyl-5-(1-((2-methylallyl)oxy)ethyl)indolizine-7-carboxamide] | 6.00 to 7.00 | –
19 | COc1cc(C)[nH]c(=O)c1CNC(=O)c1cc2cc(-c3cncn3C)cn2c(C(C)N2CCN(CC(F)(F)F)CC2)c1C (stereo not drawn) [Example 137, N-((4-Methoxy-6-methyl-2-oxo-1,2-dihydropyridin-3-yl)methyl)-6-methyl-2-(1-methyl-1H-imidazol-5-yl)-5-(1-(4-(2,2,2-trifluoroethyl)piperazin-1-yl)ethyl)indolizine-7-carboxamide] | – | pIC50: > 7.00
20 | COc1cc(C)[nH]c(=O)c1CNC(=O)c1cc2c(-c3ccc(C)nn3)ccn2c([C@H](C)N2CCN(CC(F)(F)F)CC2)c1C (single isomer, unassigned) [Compound 201, (S)—N-((4-methoxy-6-methyl-2-oxo-1,2-dihydropyridin-3-yl)methyl)-6-methyl-1-(6-methylpyridazin-3-yl)-5-(1-(4-(2,2,2-trifluoroethyl)piperazin-1-yl)ethyl)indolizine-7-formamide or (R)—N-((4-methoxy-6-methyl-2-oxo-1,2-dihydropyridin-3-yl)methyl)-6-methyl-1-(6-methylpyridazin-3-yl)-5-(1-(4-(2,2,2-trifluoroethyl)piperazin-1-yl)ethyl)indolizine-7-formamide] | > 7.00 | –
21 | COc1cc(C)[nH]c(=O)c1CNC(=O)c1cc2c(-c3cnc(C)nc3)ccn2c([C@H](C)N2CCN(CC(F)(F)F)CC2)c1C (single isomer, unassigned) [Compound 197, (S)—N-((4-methoxy-6-methyl-2-oxo-1,2-dihydropyridin-3-yl)methyl)-6-methyl-1-(2-methylpyrimidin-5-yl)-5-(1-(4-(2,2,2-trifluoroethyl)piperazin-1-yl)ethyl)indolizine-7-formamide or (R)—N-((4-methoxy-6-methyl-2-oxo-1,2-dihydropyridin-3-yl)methyl)-6-methyl-1-(2-methylpyrimidin-5-yl)-5-(1-(4-(2,2,2-trifluoroethyl)piperazin-1-yl)ethyl)indolizine-7-formamide] | > 7.00 | –
22 | Cc1cc(C)c(CNC(=O)c2cc3cc(Br)cn3c(C(C)N3CCC(F)(F)CC3)c2C)c(=O)[nH]1 (stereo not drawn) [Example 122] | 6.00 to 7.00 | –
23 | COc1cc(C)[nH]c(=O)c1CNC(=O)c1cc2cc(-c3ccnn3C)cn2c(C(C)N2CCN(CC(F)(F)F)CC2)c1C (stereo not drawn) [Example 83, N-((4-methoxy-6-methyl-2-oxo-1,2-dihydropyridin-3-yl)methyl)-6-methyl-2-(1-methyl-1H-pyrazol-5-yl)-5-(1-(4-(2,2,2-trifluoroethyl)piperazin-1-yl)ethyl)indolizine-7-carboxamide] | > 7.00 | –
24 | Cc1cc(C)c(CNC(=O)c2cc3cncn3c(N(C)C3CCOCC3)c2C)c(=O)[nH]1 [Example 68, N-((4,6-dimethyl-2-oxo-1,2-dihydropyridin-3-yl)methyl)-6-methyl-5-(methyl(tetrahydro-2H-pyran-4-yl)amino)imidazo[1,5-a]pyridine-7-carboxamide] | – | pIC50: > 7.00
